Reference: US10640463B2, “Chlorhexidine crystal forms and uses thereof in medicine” (Queen Mary University of London, priority 2016, dated 2020)

Legend:
L929 cells = settings: mouse
Experimental: 0.5% chlorhexidine spheres stock solution was used to prepare fresh successive dilutions in sterile deionised water to obtain the final concentrations ranging from 0.0005 to 0.25%. For controls (untreated cultures), sterile deionised water was used. 25 μl of each treatment were added into respective wells to achieve final concentrations ranging from 0.00005-0.025%.
L929 cells, a mouse fibroblast-like cell line (ECACC 85011425) were cultured in Dulbecco's Modified Eagle's Medium (DMEM; Lonza, UK) supplemented with 10% fetal bovine serum (FBS) with 100 IU/mL penicillin, 100 μg/mL streptomycin and 2 mmol/L glutamine (all from Invitrogen, UK) in an humidified incubator with 10% CO2 and 95% air at 37° C.
Cell metabolic activity was evaluated by measuring the mitochondrial activity using a method commonly known as a methyl-tetrazolium (MTT) assay. MTT assay was carried out according to the protocols outlined in ISO 1 0993-5:2009 (Biological evaluation of medical devices—Part 5: Tests for in vitro cytotoxicity).
Trypsinisation was performed by routine methods and cell suspension was counted using a haemocytometer and seeded in 96-well microtiter plates at a concentration of 10,000 cells per well. The cells were then left overnight in the incubator to adhere to the wells. Following overnight incubation, medium was removed and cells were washed twice with PBS. The cells were then treated with different concentrations of chlorhexidine spheres (0.00005-0.025%) for 24 and 48 hours. Following treatment, culture medium containing chlorhexidine spheres was removed and 50 μL of 5 mg/mL tetrazolium salt MTT (Sigma-Aldrich, Gillingham, UK) was added to each well and incubated in 37 C for 4 h. Formazan crystals generated by mitochondrial enzyme activity were dissolved by 100 μl of isopropanol and the intensity of purple coloured reaction product quantified by measuring the absorbance spectra at 570 nm. A cell viability level below 70% of control (no treatment) was regarded as the toxic concentration according to the ISO protocol.

[1] = Chlorhexidine release from HEMA-UDMA resin discs, with or without ultrasound; assay type: physicochemical; settings: no ultrasound, within 65 hours
Experimental: HEMA-UDMA resin was prepared by mixing 64% urethane dimethacrylate (UDMA) (Esschem UK, Lot: 591-22) and 36% hydroxyethyl methacrylate (HEMA) (Aldrich, 128635, Lot: STBC7495V), 0.08% of N,N-dimethyl-P-toluidine (Acros Organics, Lot: A0207283001) and 0.05% dimethylamino ethyl methacrylate (Aldrich, 234907, Lot: BCBF8391V) were added. The mixture was then stirred for 15 min (800 rpm, VWR Stirrer, USA). Finally, camphorquinone (Aldrich, 12, 489-3, Lot: 2338141) was added at the proportion of 0.1%. The mixture was stirred for another 15 min (VWR Stirrer, USA), and then the viscous liquid resin was prepared. Freeze dried chlorhexidine chloride compounds produced in Example 2 (precipitated with 0.33 M CaCl2) were weighed and incorporated within the resin at a loading level of 5% by weight. To explore the effect of different morphology on the release kinetics, chlorhexidine compounds with spherical, needle and flake morphology (from Example 1, FIG. 1, panels (b) and (c)) were incorporated into the resin. Incorporation of the chlorhexidine compounds within the resin was carried out by rotating the mixture contained in a 1 ml tube for 15 s in a Rotomix (120V/60 Hz, 2850 rotations/min) (ESPE RotoMix, USA). Chlorhexidine diacetate was also incorporated in the prepared resin in the same way, with loading rates of 5%, 10% and 15% (weight %). The filled resin was then placed into a Teflon mould (10 mm in diameter ×2 mm thick) and cured through a Mylar film with a curing light (Bluedent LED pen, Bulgaria) (430-490 nm, 600 mW/sq·cm) for 30 s. Then the discs were next weighed on a microbalance (Salter Ander-180A weighing scale, UK), and chlorhexidine content in each disc was calculated.
For the release study, all sample resin discs (HEMA-UDMA) containing chlorhexidine chloride compounds or chlorhexidine diacetate powder prepared in Example 5 were kept in cuvettes containing 3 ml deionized water, and kept at room temperature. And at each time point, solutions were collected for UV absorption tests (Lambda 35, Perkin Elmer, USA) and replaced with fresh deionized water.
For the chlorhexidine chloride compound doped discs (Example 5) chlorhexidine content was fixed at 5%, and ultrasound was exerted. Four groups (five discs in each group) were repetitively treated with ultrasound for 0 s, 10 s, 20 s, 30 s, accordingly, by contacting the ultrasound probe (Piezon Master 400, Swiss, 60 Hz, 45VA) on the disc surface at time points of 1 h, 3 h, 5 h, 15 h, 25 h, 40 h, 65 h, 95 h, 140 h, 205 h. After that, no ultrasound was carried out for all the groups, but release was carried on until the 650 hour time point. The UDMA-HEMA discs containing needle and flake chlorhexidine compounds and chlorhexidine diacetate (FIG. 1, panels (b) and (c), and FIG. 3, panel (g)) were also tested (UV absorption tests) at the same time points (same sample numbers) but without ultrasound treatment. For the chlorhexidine diacetate powder doped discs chlorhexidine content of 5%, 10% and 15% were also analysed, and no ultrasound treatment was carried out.

[2] = Thermo-gravimetric analysis (TGA); assay type: physicochemical; settings: TGA at 10° C./min in nitrogen, 50-800° C.
Experimental: The chlorhexidine chloride spheres (0.33M CaCl2 group) were analysed by Thermo-gravimetric analysis (TGA Q50, USA). Chlorhexidine diacetate crystals and CaCl2 powder (Sigma-Aldrich, C8106, Lot: SLBF7416V) were tested as comparisons. TGA was carried out at 10° C./min in a nitrogen atmosphere, over a temperature range of 50-800° C. The chlorhexidine proportion was further confirmed by the TGA result. […] The decomposition temperature of the chlorhexidine chloride spheres (210° C.) was higher than the chlorhexidine diacetate crystals (120° C.).

**Q.** For `[H]/N=C(\N/C(=N/[H])NCCCCCCNC(=N)NC(=N)Nc1ccc(Cl)cc1)Nc1ccc(Cl)cc1` [chlorhexidine, N,N″″1,6-Hexanediylbis[N′-(4-chlorophenyl)(imidodicarbonimidic diamide)]], which cellular viability (L929 cells) is on record?
**A.** The cellular viability was “below 10%”.

**Q.** Which “chlorhexidine released by weight” value ([1]; 5% loading, deionized water, room temperature) does the source give for `CC(=O)O.CC(=O)O.NC(=N\CCCCCC/N=C(N)/N=C(\N)Nc1ccc(Cl)cc1)/N=C(\N)Nc1ccc(Cl)cc1` [chlorhexidine diacetate, Chlorhexidine diacetate, reference compound] here?
**A.** The value was 6.7%.

**Q.** What about the “chlorhexidine released by weight” value ([1]; 10% loading) of the same compound?
**A.** Its value is 11.0%.

**Q.** And the “chlorhexidine released by weight” value ([1]; 15% loading)?
**A.** Its value is 15.1%.

**Q.** And the decomposition temperature [2]?
**A.** Its decomposition temperature is 120 °C.
